Test results reported in patent publication US20100240642A1, “1H-Indole-2-Carboxylic Acid Derivatives Useful As PPAR Modulators” (SMITHKLINE BEECHAM CORPORATION, priority 2006, published 2010).
Counter-ions that a name gives are not always drawn. Like-named read-outs stand apart in the source and are kept apart here.

How the values were obtained:
[1] = test system: Male Zucker Diabetic Fatty rats; assay: In vivo evaluation: serum glucose in Zucker Diabetic Fatty rats; set-up: species or system rat; details: 10 mg/kg once daily by oral gavage, 28 days, percent reduction from vehicle control at day 28 relative to normalization (140 mg/dL)
Procedure: Male Zucker Diabetic Fatty rats were lightly anesthetized with isofluorane gas and bleed by tail vein to obtain postprandial baseline concentrations for serum glucose, serum lipids and insulin. Animals were baseline matched by serum glucose and randomized into vehicle or treatment groups with compound administration by oral gavage beginning at 6.5 weeks of age. Selected compounds were administered once daily at 10 mg/kg in 25 mM N-Methyl-Glucamine with 5% w/v Solutol HS15. After 28 consecutive days of treatment, blood samples were obtained and analyzed for serum glucose. Values in Table 1 for % Glucose reduction represent a summary of the percent reduction from vehicle control animals at day 28 relative to normalization defined in this model as serum glucose levels of 140 mg/dL.

[2] = target: T1, hPPARγ receptor (Homo sapiens, UniProt P37231); assay: PPARγ Cell-based luciferase assay
T1 construct: expressed in transfected cells; host or cells: CV-1 (African Green Monkey kidney, ATCC CCL-70)
T1 sequence (P37231 172-475 isoform P37231-2): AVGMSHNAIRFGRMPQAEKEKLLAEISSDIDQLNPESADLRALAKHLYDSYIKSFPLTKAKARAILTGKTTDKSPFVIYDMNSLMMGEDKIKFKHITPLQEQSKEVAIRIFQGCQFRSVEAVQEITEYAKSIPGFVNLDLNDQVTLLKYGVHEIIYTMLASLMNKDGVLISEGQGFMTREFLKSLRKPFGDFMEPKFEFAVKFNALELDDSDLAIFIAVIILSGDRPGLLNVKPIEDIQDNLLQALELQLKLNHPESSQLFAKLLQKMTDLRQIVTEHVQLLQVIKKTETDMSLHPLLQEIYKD
Description: Plasmids—PCR primers containing Kpnl and BamHI restriction sites were used to amplify PPARγ ligand binding domain (LBD) fragment (172-475) from a full-length human clone. The LBD fragment was ligated into the multiple cloning site of pFA-CMV (Stratagene). The resulting construct (pFA-CMV-GAL4-hPPARγLBD carried a fusion of the LBD with the yeast-derived GAL4 DNA-binding domain under the control of the CMV immediate early promoter. Reporter construct UAStkLuc carries a single 17 bp (CGGAGTACTGTCCTCCG) upstream activating sequence (UAS), the tk minimal promoter, and the firefly luciferase gene. The integrity of each construct was confirmed by diagnostic restriction digestion and by sequencing. Plasmid DNA was prepared using Qiagen Maxi-Prep kits.
PPARγ Cell-based luciferase assay—African Green Monkey kidney cell line CV-1 (ATCC CCL-70) was maintained in Dulbecco's Modified Eagle's Medium (D-MEM) containing 10% fetal bovine serum, 2 mM glutamine, and 1% penicillin/streptomycin (pen/strep). In preparation for luciferase assays, CV-1 cells were grown in charcoal-stripped cell medium containing D-MEM/F-12 medium supplemented with 5% or 3% dextran-treated/charcoal-stripped (CS) fetal bovine serum, 2 mM glutamine, with or without 1% pen/strep, as described below. CS fetal bovine serum was purchased from Hyclone; all other cell culture reagents were from Gibco.
The luciferase protocol is a multi-day procedure. On day 1, confluent cells in maintenance medium were subcultured 1:10 into T-175 cm^2 flasks containing 50 mL of 3% CS medium with pen/strep. These flasks were allowed to incubate at 5% CO2 and 37° C. for 72 hours.
Cells were harvested by trypsinization and then transfected using FuGENE (Roche) according to the manufacturer's specifications. Briefly, each transfection contained 0.55 μg pFA_CMV_GAL4_hPPARγ_LBD plasmid, 10.9 μg UAStkLUC, and 24 μg pBluescript (carrier DNA). Plasmid DNA was mixed with FuGENE in OptiMEM-1 medium and incubated for 30 min at room temperature. During this incubation, cells were harvested into 3% CS medium without pen-strep and dispensed at 14 million cells per T-175 cm^2 flask. Transfection mixes were added to the flasks and incubated overnight at 5% CO2 and 37° C.
Transfected cells were added to 384-well plates containing pharmacological agents. Rosiglitazone standard was reconstituted in DMSO at 1 mM. For 11-point dose-response experiments, the compounds were 3-fold serially diluted in DMSO and then stamped to 384-well assay plates (NUNC, catalog #164564) at 0.5 μL/well using a Beckman FX. DMSO and agonist control compound Rosiglitazone (1 mM) were each stamped at 0.5 μL/well to columns 23 and 24, respectively, of the 384-well plates. Transfected cells were harvested in 5% CS medium with pen/strep and dispensed at 10,000 cells/well (50 μL) onto the prepared 384-well compound plates using a Titertek Multidrop. Following overnight incubation at 5% CO2 and 37° C., Steady-Glo reagent (Promega) was added to the assay plates using a Multidrop. Plates were incubated for 10 min to ensure complete cell lysis and read in a ViewLux (PerkinElmer). […] Partial agonism is defined here as 20-80% activation (relative to full agonist rosiglitazone) at concentrations of 10^−6 M or less.

[3] = CV-1 cells transfected with GAL4-hPPARγ LBD and UAStkLuc, at concentrations of 10^−6 M or less, read-out: agonism of the hPPARγ receptor (activation relative to full agonist rosiglitazone)

| Emax [2, 3] [%] | SMILES | % Glucose Reduction [1] [%] | Emax ([2]; CV-1, read-out: agonism of the hPPARγ receptor (activation relative to full agonist rosiglitazone)) [%] |
| --- | --- | --- | --- |
| 20 to 80 | COCCOc1cc(Cn2c(C(=O)O)c(-c3ccc(C(C)(C)C)cc3)c3ccccc32)cc(OCC2CC2)c1 [Example 2, 1-[(3-[(cyclopropylmethyl)oxy]-5-{[2-(methyloxy)ethyl]oxy}phenyl)methyl]-3-[4-(1,1-dimethylethyl)phenyl]-1H-indole-2-carboxylic acid] | 96 |  |
| 20 to 80 | Cc1ccc(-c2ccc(C(=O)O)cc2)cc1Cn1c(C(=O)O)c(-c2ccc(C(C)(C)C)cc2)c2ccccc21 [Example 11, 1-[(4′-carboxy-4-methyl-3-biphenylyl)methyl]-3-[4-(1,1-dimethylethyl)phenyl]-1H-indole-2-carboxylic acid] | 49 |  |
| 20 to 80 | COCCOc1cc(Cn2c(C(=O)O)c(-c3ccc(C(C)(C)C)cc3)c3ccccc32)cc(OC(=O)N2CCCCC2)c1 [Example 51, 3-[4-(1,1-dimethylethyl)phenyl]-1-({3-{[2-(methyloxy)ethyl]oxy}-5-[(1-piperidinylcarbonyl)oxy]phenyl}methyl)-1H-indole-2-carboxylic acid] |  |  |
| 20 to 80 | COCCOc1cc(Cn2c(C(=O)O)c(-c3ccc(C(C)(C)C)cc3)c3ccccc32)cc(OC(=O)N2CCOCC2)c1 [Example 52, 3-[4-(1,1-dimethylethyl)phenyl]-1-({3-{[2-(methyloxy)ethyl]oxy}-5-[(4-morpholinylcarbonyl)oxy]phenyl}methyl)-1H-indole-2-carboxylic acid] |  |  |
|  | COCCOc1cc(Cn2c(C(=O)O)c(-c3ccc(C(C)(C)C)cc3)c3ccccc32)cc(OC(=O)N2CCNC2=O)c1 [Example 53, 3-[4-(1,1-dimethylethyl)phenyl]-1-[(3-{[2-(methyloxy)ethyl]oxy}-5-{[(2-oxo-1-imidazolidinyl)carbonyl]oxy}phenyl)methyl]-1H-indole-2-carboxylic acid] |  | 20 to 80 |
| 20 to 80 | O=C(O)c1c(Cc2cccc(C(F)(F)F)c2)c2ccccc2n1Cc1cc(OCCn2cccc2)cc(OCC2CC2)c1 [Example 54, 1-[(3-[(cyclopropylmethyl)oxy]-5-{[2-(1H-pyrrol-1-yl)ethyl]oxy}phenyl)methyl]-3-{[3-(trifluoromethyl)phenyl]methyl}-1H-indole-2-carboxylic acid] |  |  |
| 20 to 80 | COCCOCCCOc1cc(Cn2c(C(=O)O)c(Cc3cccc(C(F)(F)F)c3)c3ccccc32)cc(OCC2CC2)c1 [Example 55, 1-({3-[(cyclopropylmethyl)oxy]-5-[(3-{[2-(methyloxy)ethyl]oxy}propyl)oxy]phenyl}methyl)-3-{[3-(trifluoromethyl)phenyl]methyl}-1H-indole-2-carboxylic acid] |  |  |
| 20 to 80 | COCCOc1cc(Cn2c(C(=O)O)c(Cc3cccc(C(F)(F)F)c3)c3ccccc32)cc(OCC2CC2)c1 [Example 56, 1-[(3-[(cyclopropylmethyl)oxy]-5-{[2-(methyloxy)ethyl]oxy}phenyl)methyl]-3-{[3-(trifluoromethyl)phenyl]methyl}-1H-indole-2-carboxylic acid] |  |  |
| 20 to 80 | CN(C)CCCOc1cc(Cn2c(C(=O)O)c(Cc3cccc(C(F)(F)F)c3)c3ccccc32)cc(OCC2CC2)c1 [Example 57, 1-[(3-[(cyclopropylmethyl)oxy]-5-{[3-(dimethylamino)propyl]oxy}phenyl)methyl]-3-{[3-(trifluoromethyl)phenyl]methyl}-1H-indole-2-carboxylic acid hydrochloride] |  |  |
| 20 to 80 | COCCOc1cc(Cn2c(C(=O)O)c(Cc3cccc(C(F)(F)F)c3)c3ccccc32)cc(OCCOC)c1 [Example 58, 1-[(3,5-bis{[2-(methyloxy)ethyl]oxy}phenyl)methyl]-3-{[3-(trifluoromethyl)phenyl]methyl}-1H-indole-2-carboxylic acid] |  |  |
| 20 to 80 | O=C(O)c1c(Cc2cccc(C(F)(F)F)c2)c2ccccc2n1Cc1cc(OCC2CC2)cc(OCC2CC2)c1 [Example 59, 1-({3,5-bis[(cyclopropylmethyl)oxy]phenyl}methyl)-3-{[3-(trifluoromethyl)phenyl]methyl}-1H-indole-2-carboxylic acid] |  |  |
| 20 to 80 | COCCOc1cc(Cn2c(C(=O)O)c(-c3cc4ccccc4o3)c3ccccc32)cc(OCCOC)c1 [Example 60, 3-(1-benzofuran-2-yl)-1-[(3,5-bis{[2-(methyloxy)ethyl]oxy}phenyl)methyl]-1H-indole-2-carboxylic acid] |  |  |
| 20 to 80 | COCCOc1cc(Cn2c(C(=O)O)c(Oc3ccc(C(C)(C)C)cc3)c3ccccc32)cc(OCCOC)c1 [Example 61, 1-[(3,5-bis{[2-(methyloxy)ethyl]oxy}phenyl)methyl]-3-{[4-(1,1-dimethylethyl)phenyl]oxy}-1H-indole-2-carboxylic acid] |  |  |
| 20 to 80 | COCCOc1cc(Cn2c(C(=O)O)c(Nc3ccc(C(C)(C)C)cc3)c3ccccc32)cc(OCCOC)c1 [Example 62, 1-[(3,5-bis{[2-(methyloxy)ethyl]oxy}phenyl)methyl]-3-{[4-(1,1-dimethylethyl)phenyl]amino}-1H-indole-2-carboxylic acid] |  |  |
| 20 to 80 | CC(C)(C)c1ccc(-c2c(C(=O)O)n(Cc3cc(C(F)(F)F)cc(C(F)(F)F)c3)c3ccccc23)cc1 [Example 63, 1-{[3,5-bis(trifluoromethyl)phenyl]methyl}-3-[4-(1,1-dimethylethyl)phenyl]-1H-indole-2-carboxylic acid] |  |  |
| 20 to 80 | COCCOc1cc(Cn2c(C(=O)O)c(-c3ccc(C(C)(C)C)cc3)c3ccccc32)cc(C(F)(F)F)c1 [Example 64, 3-[4-(1,1-dimethylethyl)phenyl]-1-{[3-{[2-(methyloxy)ethyl]oxy}-5-(trifluoromethyl)phenyl]methyl}-1H-indole-2-carboxylic acid] |  |  |
| 20 to 80 | CC(C)(C)c1ccc(-c2c(C(=O)O)n(Cc3cc(OCC4CC4)cc(C(F)(F)F)c3)c3ccccc23)cc1 [Example 65, 1-{[3-[(cyclopropylmethyl)oxy]-5-(trifluoromethyl)phenyl]methyl}-3-[4-(1,1-dimethylethyl)phenyl]-1H-indole-2-carboxylic acid] |  |  |
| 20 to 80 | COCCOc1cc(Cn2c(C(=O)O)c(-c3ccc(C(C)(C)C)cc3)c3ccccc32)cc(OCCOC)c1 [Example 66, 1-[(3,5-bis{[2-(methyloxy)ethyl]oxy}phenyl)methyl]-3-[4-(1,1-dimethylethyl)phenyl]-1H-indole-2-carboxylic acid] |  |  |
| 20 to 80 | COCCOc1cc(Cn2c(C(=O)O)c(-c3ccc(C(C)(C)C)cc3)c3ccccc32)cc(OCc2ccccc2)c1 [Example 67, 3-[4-(1,1-dimethylethyl)phenyl]-1-({3-{[2-(methyloxy)ethyl]oxy}-5-[(phenylmethyl)oxy]phenyl}methyl)-1H-indole-2-carboxylic acid] |  |  |
